In general, IC50 refers to the concentration that gives 50% inhibition. By inhibition is commonly meant how much of the control response was suppressed. Low readings indicate a weak effect, high ones a strong effect.

These results are taken from patent publication US8492374B2, “Azaazulene compounds” (Industrial Technology Research Institute, priority 2009, dated 2013).

Experiment [1] relates to MV4-11 (FLT3-ITD) cell line. The experiment can be described thus: In vitro cell activity assay (MTT cell viability, 72 hours). It counts as cell-based. The note with it: Homo sapiens, 72 hours at 37° C., 10,000 cells per well, read-out: IC50 against MV4-11. The method, then:
Human MV4-11 (FLT3-ITD) cell line was obtained from American Tissue Culture Collection (ATCC number: CRL-9591). The cell line was cultured with RPMI 1640 containing 10% fetal bovine serum, 1 mmol/L sodium pyruvate and 10 mmol/L HEPES (pH 7.4). The cell was grown and maintained in a humidified atmosphere at 37° C. and 5% carbon dioxide.
MV4-11 cell was plated in 96-well microtiter plates (10,000 cells per well) and serial dilutions of indicated compounds were added. At the end of the incubation period (72 hours at 37° C.), cell viability was determined by a tetrazolium dye, MTT (3-(4,5-dimethylthiazol-2-yl)-2,5-diphenyl tetrazolium bromide) (Promega, Madison, Wis.). The formazan crystals were dissolved by DMSO, and the absorbance at a wavelength of 600 nm was recorded using an ELISA plate reader. IC50 values were calculated using nonlinear regression and defined as the concentration needed for a 50% reduction in absorbance of treated versus untreated control cells.

For a further experiment, the target named is T1, FLT-3 kinase (Homo sapiens, UniProt P36888).
T1 construct: human FLT-3 (Arg571-Ser993); GST (N); purchased Cell Signaling Technology HTScan FLT-3 Kinase Assay Kit; host or cells: baculovirus expression system
T1 sequence (P36888 571-993): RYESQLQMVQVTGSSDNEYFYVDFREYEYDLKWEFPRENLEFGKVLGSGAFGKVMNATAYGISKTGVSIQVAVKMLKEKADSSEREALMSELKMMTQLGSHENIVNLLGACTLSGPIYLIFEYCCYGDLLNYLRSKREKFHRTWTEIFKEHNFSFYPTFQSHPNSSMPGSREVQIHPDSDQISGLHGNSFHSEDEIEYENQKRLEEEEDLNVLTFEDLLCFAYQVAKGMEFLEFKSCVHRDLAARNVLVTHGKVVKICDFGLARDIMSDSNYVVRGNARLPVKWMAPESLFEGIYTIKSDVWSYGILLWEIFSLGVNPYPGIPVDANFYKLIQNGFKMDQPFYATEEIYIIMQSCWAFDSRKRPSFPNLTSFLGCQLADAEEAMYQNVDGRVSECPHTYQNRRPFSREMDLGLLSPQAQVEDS
The experiment can be described thus: FLT-3 kinase DELFIA assay (HTScan FLT-3 Kinase Assay Kit). The note with it: 20 uM ATP; for inhibition at 0.1 µM: 0.1 uM compound; for inhibition at 1 µM: 1 uM compound. It counts as biochemical. The procedure:
Azaazulene Compounds of this invention were treated for their efficacy in inhibiting activities of FLT-3, c-KIT and KDR kinases by biochemical DELFIA (Dissociation Enhanced Lanthanide FIA) assays according to the procedure described below. The assays were conducted by, Division of Cell Engineering, Biomedical Engineering Research Laboratories, Industrial Technology Research Institute, Bldg. 53, 195, sec. 4, Chung Hsing Rd. Chutung, Hsinchu, Taiwan 310, R.O.C.
The FLT-3 assay was conducted following the protocol described in Protocol for HTScang FLT-3 Kinase Assay Kit (Cell Signaling Technology®).

With `O=c1[nH]c2cccccc-2c1-c1nc2cc(F)c(F)cc2[nH]1` [Compound B3], the IC50 in experiment [1] is 1000 to 5000 nM.
On FLT-3 kinase, `O=c1[nH]c2cccccc-2c1-c1nc2cc(Cl)cnc2[nH]1` [Compound B10] gave an inhibition at 0.1 µM of 8.9% and an inhibition at 1 µM of 20.3%. In experiment [1], the half-inhibitory concentration (IC50) was in the range of 1000 to 5000 nM.
On FLT-3 kinase, `O=c1[nH]c2cccccc-2c1-c1cn2cccnc2n1` [Compound B12] came in with an inhibition at 0.1 µM of 4.5% and an inhibition at 1 µM of 1.6%. Besides, the IC50 in experiment [1] was more than 5000 nM.
On FLT-3 kinase, `O=c1[nH]c2cccccc-2c1-c1cn2ccc(Cl)cc2n1` [Compound B16] registered an inhibition at 0.1 µM of 4.8% and an inhibition at 1 µM of 16.5%. Further, in experiment [1], the IC50 is more than 5000 nM.
On FLT-3 kinase, `O=c1[nH]c2cccccc-2c1-c1cn2cc(Br)ccc2n1` [Compound B17] registered an inhibition at 0.1 µM of 4.9% and an inhibition at 1 µM of 23.4%. Moreover, the IC50 in experiment [1] is 1000 to 5000 nM.
On FLT-3 kinase, `O=c1[nH]c2cccccc-2c1-c1nc2cc3ccccc3cc2[nH]1` [Compound B18] had an inhibition at 0.1 µM of 16.4% and an inhibition at 1 µM of 40.2%.
On FLT-3 kinase, `N#Cc1ccc2[nH]c(-c3c4cccccc-4[nH]c3=O)nc2c1` [Compound B19] came in with an inhibition at 0.1 µM of 14.7% and an inhibition at 1 µM of 28.6%. For the same compound, in experiment [1], the half-maximal inhibitory concentration (IC50) fell in the range of 1000 to 5000 nM.
For `CC(C)(C)OC(=O)Nc1ccc2[nH]c(-c3c4cccccc-4[nH]c3=O)nc2c1` [Compound B20], in that order: 16.7%, 33.3% and 1000 to 5000 nM.
In the case of `O=c1[nH]c2cccccc-2c1-c1nc2cc(N3CCNCC3)ccc2[nH]1` [Compound B22], at FLT-3 kinase, the inhibition at 0.1 µM was 29.1% and 1 µM produced 83.9% inhibition. Besides, in experiment [1], the concentration for half-maximal inhibition (IC50) was 42.9 nM.
As to `O=c1[nH]c2cccccc-2c1-c1nc2cc(N3CCNCC3)ccc2n1CC(F)(F)F` [Compound B23], at FLT-3 kinase, 0.1 µM produced 41.2% inhibition and the inhibition at 1 µM was determined as 91.5%. Besides, the IC50 in experiment [1] was 34.4 nM.
At FLT-3 kinase, `CC1CN(c2ccc3[nH]c(-c4c5cccccc-5[nH]c4=O)nc3c2)CC(C)N1` (centres unmarked) [Compound B24] had an inhibition at 0.1 µM of 19.1% and an inhibition at 1 µM of 71.5%. For the same compound, the IC50 in experiment [1] stood at 75 nM.
With `CN1CCN(c2ccc3[nH]c(-c4c5cccccc-5[nH]c4=O)nc3n2)CC1` [Compound B27], the IC50 in experiment [1] was determined as 375 nM.
Regarding `CCN1CCN(c2ccc3[nH]c(-c4c5cccccc-5[nH]c4=O)nc3c2)CC1` [Compound B28], the IC50 in experiment [1] stood at 96.3 nM.
Regarding `CCN(CC)CCCCn1c2cccccc-2c(-c2nc3cc(N4CCN(C)CC4)ccc3[nH]2)c1=O` [Compound B32], on FLT-3 kinase, the inhibition at 0.1 µM was found to be 8% and at 1 µM the inhibition was 8.1%. Moreover, the 50% inhibitory concentration (IC50) in experiment [1] fell in the range of 1000 to 5000 nM.
For `CN(C)CCCN1CCN(c2ccc3[nH]c(-c4c5cccccc-5[nH]c4=O)nc3c2)CC1` [Compound B33] the same measures were 58.7%, 96.6% and 54.2 nM.
At FLT-3 kinase, `CCCCN(CCCC)CCN1CCN(c2ccc3[nH]c(-c4c5cccccc-5[nH]c4=O)nc3c2)CC1` [Compound B34] had an inhibition at 0.1 µM of 40.2% and an inhibition at 1 µM of 85.4%. In addition, the concentration for half-maximal inhibition (IC50) in experiment [1] is 151 nM.
For `CN1CCC(N2CCN(c3ccc4[nH]c(-c5c6cccccc-6[nH]c5=O)nc4c3)CC2)CC1` [Compound B35] the same measures were 42%, 86.7% and 159 nM.
As for `O=c1[nH]c2cccccc-2c1-c1nc2cc(N3CCN(CCO)CC3)ccc2[nH]1` [Compound B36], on FLT-3 kinase, the inhibition at 0.1 µM was 24.8% and the inhibition at 1 µM came out at 64%. Also, the IC50 in experiment [1] came out at 151 nM.
On FLT-3 kinase, `O=c1[nH]c2cccccc-2c1-c1nc2cc(N3CCN(CCF)CC3)ccc2[nH]1` [Compound B38] showed an inhibition at 0.1 µM of 21.8% and an inhibition at 1 µM of 69.2%. Also, the half-inhibitory concentration (IC50) in experiment [1] was 118 nM.
As to `O=c1[nH]c2cccccc-2c1-c1nc2cc(N3CCN(CCCF)CC3)ccc2[nH]1` [Compound B39], at FLT-3 kinase, the inhibition at 0.1 µM was found to be 24.3% and testing at 1 µM gave an inhibition of 78.6%. Moreover, the IC50 in experiment [1] came to 62.2 nM.
On FLT-3 kinase, `O=c1[nH]c2cccccc-2c1-c1nc2cc(N3CCN(C[C@@H](O)CO)CC3)ccc2[nH]1` [Compound B40] had an inhibition at 0.1 µM of 38.2% and an inhibition at 1 µM of 88.1%. For the same compound, in experiment [1], the 50% inhibitory concentration (IC50) came to 72.3 nM.
Consider `O=c1[nH]c2cccccc-2c1-c1nc2cc(N3CCN(Cc4ccc5ccccc5c4)CC3)ccc2[nH]1` [Compound B43], for which, on FLT-3 kinase, the inhibition at 0.1 µM was found to be 33.5% and the inhibition at 1 µM amounted to 67.2%. Further, the IC50 in experiment [1] fell in the range of 1000 to 5000 nM.
For `O=c1[nH]c2cccccc-2c1-c1nc2cc(N3CCN(Cc4ccccc4)CC3)ccc2[nH]1` [Compound B44], on FLT-3 kinase, the inhibition at 0.1 µM was found to be 29% and the inhibition at 1 µM was 79.1%. The half-maximal inhibitory concentration (IC50) in experiment [1] stood at 190 nM.
At FLT-3 kinase, `CN(C)c1ccc(CN2CCN(c3ccc4[nH]c(-c5c6cccccc-6[nH]c5=O)nc4c3)CC2)cc1` [Compound B45] registered an inhibition at 0.1 µM of 27.3% and an inhibition at 1 µM of 77%. For the same compound, the concentration for half-maximal inhibition (IC50) in experiment [1] was determined as 318 nM.
For `O=c1[nH]c2cccccc-2c1-c1nc2cc(N3CCN(Cc4ccc(Br)o4)CC3)ccc2[nH]1` [Compound B46] the same measures were 27.4%, 79.2% and 314 nM.
Turning to `O=c1[nH]c2cccccc-2c1-c1nc2cc(N3CCN(Cc4ccncc4)CC3)ccc2[nH]1` [Compound B47], the IC50 in experiment [1] is 300 nM.
On to `O=c1[nH]c2cccccc-2c1-c1nc2cc(N3CCN(Cc4cccnc4)CC3)ccc2[nH]1` [Compound B48], for which the half-maximal inhibitory concentration (IC50) in experiment [1] is 148 nM.
On FLT-3 kinase, `O=c1[nH]c2cccccc-2c1-c1nc2cc(N3CCN(Cc4ccccn4)CC3)ccc2[nH]1` [Compound B49] had an inhibition at 0.1 µM of 21.9% and an inhibition at 1 µM of 72.2%. For the same compound, in experiment [1], the IC50 was determined as 249 nM.
On FLT-3 kinase, `CN1CCN(c2cc3nc(-c4c5cccccc-5[nH]c4=O)[nH]c3cc2F)CC1` [Compound B50] gave an inhibition at 0.1 µM of 25.1% and an inhibition at 1 µM of 79.6%. In addition, the 50% inhibitory concentration (IC50) in experiment [1] came out at 50.7 nM.
`CN1CCCN(c2c(F)cc3[nH]c(-c4c5cccccc-5[nH]c4=O)nc3c2F)CC1` [Compound B86]: the IC50 in experiment [1] is 253 nM.
As for `O=c1[nH]c2cccccc-2c1-c1nc2cc(N3CCC(O)CC3)ccc2[nH]1` [Compound B107], at FLT-3 kinase, the inhibition at 0.1 µM came out at 42.5% and the inhibition at 1 µM stood at 92.9%.
On FLT-3 kinase, `CN(C)[C@@H]1CCN(c2ccc3[nH]c(-c4c5cccccc-5[nH]c4=O)nc3c2)C1` [Compound B110] gave an inhibition at 0.1 µM of 36.5% and an inhibition at 1 µM of 84.9%.
At FLT-3 kinase, `O=c1[nH]c2cccccc-2c1-c1nc2cc(-n3nccn3)ccc2[nH]1` [Compound B116] displayed an inhibition at 0.1 µM of 36.3% and an inhibition at 1 µM of 62.7%.
Regarding `O=C(Nc1ccccc1)Nc1ccc2[nH]c(-c3c4cccccc-4[nH]c3=O)nc2c1` [Compound B121], the IC50 in experiment [1] lay within 100 to 500 nM.
As to `O=C(Nc1ccc2[nH]c(-c3c4cccccc-4[nH]c3=O)nc2c1)Nc1c(Cl)cncc1Cl` [Compound B122], the IC50 in experiment [1] is more than 5000 nM.
As for `CCc1cccc(C)c1NC(=O)Nc1ccc2[nH]c(-c3c4cccccc-4[nH]c3=O)nc2c1` [Compound B123], the IC50 in experiment [1] fell in the range of 1000 to 5000 nM.
`O=C(Nc1ccc2[nH]c(-c3c4cccccc-4[nH]c3=O)nc2c1)NC1CCCCC1` [Compound B124]: the half-inhibitory concentration (IC50) in experiment [1] was approximately 5000 nM.
The same measure, in the same setting: with `O=C(Nc1ccc2[nH]c(-c3c4cccccc-4[nH]c3=O)nc2c1)Nc1ccccc1F` [Compound B125] the figure was 680 nM.
In the case of `O=C(Nc1cccc(F)c1)Nc1ccc2[nH]c(-c3c4cccccc-4[nH]c3=O)nc2c1` [Compound B126], the IC50 in experiment [1] was more than 5000 nM.
As for `O=C(Nc1ccc(F)cc1)Nc1ccc2[nH]c(-c3c4cccccc-4[nH]c3=O)nc2c1` [Compound B127], in experiment [1], the concentration for half-maximal inhibition (IC50) is approximately 1000 nM.
Turning to `O=C(Nc1ccc2[nH]c(-c3c4cccccc-4[nH]c3=O)nc2c1)Nc1ccc(F)cc1F` [Compound B128], the IC50 in experiment [1] is 1000 to 5000 nM.
On to `O=C(Nc1ccc2[nH]c(-c3c4cccccc-4[nH]c3=O)nc2c1)Nc1c(F)cccc1F` [Compound B129], for which the IC50 in experiment [1] is more than 5000 nM.
